In one assay the test system is mold growth on moist alfalfa hay.
Experiment: not given
The conditions noted are these: preservation of moist alfalfa hay; cited from earlier work.
As for `CC(=O)c1ccc(O)cc1` [4-Hydroxyacetophenone], the “prevention of mold growth” value is given as “not prevent mold growth”.

In another assay the test system is A. brasiliensis. Nature of the assay: Minimum Inhibitory Concentration (MIC) and Kull synergy index against A. brasiliensis. It counts as cell-based. Details: unit not given here.
Details: not given
The text has this: To calculate the synergism between compounds of formula (I) and other antimicrobial actives, the Kull equation^1 2 was used SI=(Cmixture×PA)/CA+(Cmixture×PB)/CB (I) • where • SI is the Synergy Index according to Kull^1), 2) • CA is the […] for substance A • CB is the cell count for substance B • Cmixture is the cell count for the mixture of substances A and B • PA is the proportion of the substance A in the mixture • PB is the proportion of the substance B in the mixture. ^1 Kull, F. C., Eismann, P. C., Sylvestrowicz, H. D., and R. L. Mayer (1961). Mixtures of Quaternary Ammonium Compounds and Long-chain Fatty Acids as Antifungal Agents. Applied Microbiology 9, 538-541.^2 Steinberg, D. C. (2000). Measuring Synergy. Cosmetics & Toiletries 115 (11), 59-62.
Antimicrobil activity was evaluated by determining the Minimum Inhibitory Concentration (MIC) representing the lowest concentration of a chemical which prevents visible growth of a bacterium.
The MIC values were determined by preparing solutions of the chemical in vitro at increasing concentrations, incubating the solutions with the separate batches of cultured bacteria, and measuring the results using agar dilution or broth microdilution. Results have been graded into susceptible (often called sensitive), intermediate, or resistant to a particular antibiotic by using a cutoff point. Cut off points are agreed upon values, published in guidelines of a reference body, such as the U.S. Clinical and Laboratory Standards Institute (CLSI), the British Society for Antimicrobial Chemotherapy (BSAC) or the European Committee on Antimicrobial Susceptibility Testing (EUCAST).
Regarding `C/C=C/C=C/C(=O)[O-].[K+]` [Potassium sorbate], the “MIC (Comparison: MIC values for the actives taken alone)” value (from here on “MIC”) is on record as 5000.

The assay is the same for the next values; noted with them: active taken alone; A. brasiliensis.
For `Cc1cc(CC(C)CC(C)(C)C)n(O)c(=O)c1.NCCO` (stereo not shown) [Piroctone oleamine, Octopyrox, 1-hydroxy-4-methyl-6-(2,4,4-trimethylpentyl)-2-(1H)-pyridinone monoethanolamine salt], the “MIC” value was determined as 64.
Still for that read-out and setting: next, `CCCCCCCCCCCC(=O)N[C@@H](CCCN=C(N)N)C(=O)OCC.Cl` [Ethyl lauroyl arginate HCl]: 2.000; `CCCCNC(=O)OCC#CI` [IPBC, 3-Iodo-2-propynylbutylcarbamate, 3-Iodo-2-propynylbutylcarbamate]: 1; `CCCCCCCC(=O)NCC(=O)O` [Capryloyl glycine]: 60.000.
Same read-out and setting: next, `O=C([O-])c1ccccc1.[Na+]` [Sodium benzoate]: 10.000.
Take `CC(=O)c1ccc(O)cc1` [4-Hydroxyacetophenone]: the “MIC” value is recorded as 2500.
The same measure, in the same setting: next, `Oc1cc(Cl)ccc1Oc1ccc(Cl)cc1Cl` [Triclosan, 2,4,4′-trichloro-2′-hydroxy-diphenyl ether]: 32.
Still for that read-out and setting: next, `C=CCCCCCCCCC(=O)O` [Undecylenic acid, Undec-10-enoic acid, Undec-10-enoic acid]: 500; `O=C(O)CN(CCN(CC(=O)O)CC(=O)O)CC(=O)O` [Ethylene diamine tetra acetate (EDTA), Ethylene diamine tetra acetate]: 40.000; `OCc1ccccc1` [Benzyl alcohol]: 5000.
The same measure, in the same setting: next, Glceryl caprylate: 2.000; `Cc1cc(O)ccc1C(C)C` [4-Isopropyl-3-methylphenol]: 250; Sorbitan caprylate: 4000.
Regarding `CC(C)(C)C(=O)C(Oc1ccc(Cl)cc1)n1ccnc1` (stereo not shown) [Climbazol, Crinipan, Climbazol], the “MIC” value was found to be 64.
For the compound `OCCCO` [1,3-Propanediol], the “MIC” value was found to be 200.000.
Same read-out and setting: next, `CCCCCCCCCC(=O)OCC(O)CO` (stereo not shown) [Glyceryl caprate]: 2.000; `O=[N+]([O-])C(Br)(CO)CO` [Bronopol, 2-bromo-2-nitro-1,3-propanediol]: 2000.
On the same count and under the same terms, next, `C=CCCCCCCCCC(=O)NCC(=O)O` [Undecenoyl glycin]: 5.000.

In a further assay the test system is subcutaneous inflammation.
Experiment: not given
The conditions noted are these: administered intraperitoneally; cited from earlier work.
On to `CC(=O)c1ccc(O)cc1` [4-Hydroxyacetophenone], for which the “reduction of subcutaneous inflammation” value is “one of the active compounds reducing subcutaneous inflammation”.

Test system in the next assay: not given
Experiment: not given
Conditions: chemical in vitro assay; constituent of Tagetes mendocina; cited from earlier work.
Take `CC(=O)c1ccc(O)cc1` [4-Hydroxyacetophenone]: the antioxidant activity result is “one of the active constituents”.

(Values after patent publication US12193441B2, “Antimicrobial mixtures comprising at least one hydroxyphenone derivative” (SYMRISE AG, priority 2018, dated 2025).)
